target: Protein kinase C theta type (Homo sapiens, UniProt Q04759); test: Inhibition of PKCtheta (unknown origin) by HTRF assay
Sequence (Q04759 whole entry): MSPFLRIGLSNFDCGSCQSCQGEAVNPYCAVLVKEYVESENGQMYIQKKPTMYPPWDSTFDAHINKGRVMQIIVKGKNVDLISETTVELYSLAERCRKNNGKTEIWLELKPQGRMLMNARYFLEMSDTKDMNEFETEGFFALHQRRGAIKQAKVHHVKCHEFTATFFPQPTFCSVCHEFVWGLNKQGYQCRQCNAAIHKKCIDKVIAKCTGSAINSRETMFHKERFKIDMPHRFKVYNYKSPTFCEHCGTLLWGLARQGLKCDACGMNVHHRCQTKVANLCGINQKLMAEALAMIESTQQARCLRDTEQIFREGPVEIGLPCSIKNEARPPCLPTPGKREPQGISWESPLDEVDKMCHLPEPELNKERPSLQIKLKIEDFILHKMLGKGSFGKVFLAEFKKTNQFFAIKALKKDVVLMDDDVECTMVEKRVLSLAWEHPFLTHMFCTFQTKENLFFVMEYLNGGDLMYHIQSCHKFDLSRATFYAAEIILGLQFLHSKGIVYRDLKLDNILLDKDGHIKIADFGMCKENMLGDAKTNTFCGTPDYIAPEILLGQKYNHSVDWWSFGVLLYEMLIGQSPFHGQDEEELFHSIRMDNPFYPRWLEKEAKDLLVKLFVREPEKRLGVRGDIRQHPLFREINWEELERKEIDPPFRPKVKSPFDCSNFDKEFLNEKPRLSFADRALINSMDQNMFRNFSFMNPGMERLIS

| IC50 | SMILES |
| --- | --- |
| > 2.5 µM | CO[C@@H]1C(=O)C[C@H]2O[C@]1(C)n1c3ccccc3c3c4c(c5c6ccccc6n2c5c31)C(=O)NC4 |
| > 2.5 µM | CN1Cc2c(c3c4ccccc4[nH]c3c3[nH]c4ccccc4c23)C1=O |
| 0.17 µM | CO[C@H]1[C@@H](N2CC[C@@H](O)C2=O)C[C@@H]2O[C@@]1(C)n1c3ccccc3c3c4c(c5c6ccccc6n2c5c31)C(=O)NC4 |
| > 2.5 µM | C[C@@H]1O[C@@H](n2c3ccccc3c3c4c(c5c6ccccc6[nH]c5c32)[C@H](O)NC4=O)[C@H](O)[C@H](O)[C@H]1O |
| > 2.5 µM | C[C@@H]1O[C@@H](n2c3ccccc3c3c4c(c5c6ccccc6[nH]c5c32)CNC4=O)C[C@@H](NC=O)[C@H]1O |
| 0.036 µM | CO[C@@H]1[C@H](N)C[C@H]2O[C@]1(C)n1c3ccccc3c3c4c(c5c6ccccc6n2c5c31)C(=O)NC4=O |
| > 2.5 µM | CO[C@H]1NC(=O)c2c1c1c3ccccc3[nH]c1c1c2c2ccccc2n1[C@@H]1O[C@@H](C)[C@H](O)[C@@H](O)[C@H]1O |
| > 2.5 µM | COC1NC(=O)c2c1c1c3ccccc3[nH]c1c1[nH]c3ccc(O)cc3c21 (configuration not stated) |
| > 2.5 µM | C[C@@H]1O[C@@H](n2c3ccccc3c3c4c(c5c6ccccc6[nH]c5c32)C(=O)NC4=O)[C@H](O)[C@H](O)[C@H]1O |
| > 2.5 µM | C[C@H]1O[C@@H]2C[C@](O)([C@H]1O)n1c3ccccc3c3c4c(c5c6cc(O)ccc6n2c5c31)C(=O)NC4 |
| 1.01 µM | CO[C@@H]1[C@@H](O)[C@@H](O)[C@H]2O[C@]1(C)n1c3ccccc3c3c4c(c5c6ccccc6n2c5c31)C(=O)NC4 |
| > 2.5 µM | C[C@@H]1O[C@@H](n2c3ccc(O)cc3c3c4c(c5c6ccccc6[nH]c5c32)CNC4=O)[C@H](O)[C@H](O)[C@H]1O |
| > 2.5 µM | C[C@@H]1O[C@@H](n2c3ccc(O)cc3c3c4c(c5c6ccccc6[nH]c5c32)CNC4=O)C[C@@H](N)[C@H]1O |
| > 2.5 µM | C[C@H]1NC(=O)c2c1c1c3ccccc3[nH]c1c1[nH]c3ccccc3c21 |
| 0.27 µM | CC(=O)N[C@H]1C[C@H]2O[C@@](C)([C@@H]1O)n1c3ccccc3c3c4c(c5c6ccccc6n2c5c31)C(=O)NC4 |
| > 2.5 µM | CC(=O)N[C@@H]1C[C@H](n2c3ccccc3c3c4c(c5c6ccccc6[nH]c5c32)CNC4=O)O[C@@H](C)[C@@H]1O |
| 0.48 µM | CO[C@@H]1[C@@H](O)C[C@H]2O[C@]1(C)n1c3ccccc3c3c4c(c5c6ccccc6n2c5c31)C(=O)NC4 |

| IC50 | SMILES |
| --- | --- |
| 0.25 µM | CO[C@@H]1[C@H](N(C)C=O)C[C@H]2O[C@]1(C)n1c3ccccc3c3c4c(c5c6ccccc6n2c5c31)C(=O)NC4 |
| 4.76 µM | C[C@@H]1O[C@@H](n2c3ccccc3c3c4c(c5c6ccccc6[nH]c5c32)C(=O)NC4=O)C[C@@H](NC=O)[C@H]1O |
| > 2.5 µM | CC(=O)N[C@@H]1C[C@H](n2c3ccccc3c3c4c(c5c6ccccc6[nH]c5c32)C(=O)NC4=O)O[C@@H](C)[C@@H]1O |
| > 2.5 µM | COc1cc(/C=C(/C(N)=O)n2c3ccccc3c3c4c(c5c6ccccc6[nH]c5c32)CNC4=O)ccc1O |
| > 2.5 µM | CNn1c2ccccc2c2c3c(c4c5ccccc5[nH]c4c21)C(=O)NC3 |
| 2.11 µM | O=C1NCc2c1c1c3cc(O)ccc3[nH]c1c1[nH]c3ccccc3c21 |
| > 2.5 µM | O=C1NCc2c1c1c3ccccc3[nH]c1c1[nH]c3ccc(O)cc3c21 |
| 0.17 µM | CO[C@@H]1[C@H](N(C)C(C)=O)C[C@H]2O[C@]1(C)n1c3ccccc3c3c4c(c5c6ccccc6n2c5c31)C(=O)NC4 |
| > 2.5 µM | COC(=O)c1cccc2c1NC1(C[C@H]3O[C@]1(C)n1c4ccccc4c4c5c(c6c7ccccc7n3c6c41)C(=O)NC5)C(=O)O2 (some centres not stated) |
| 1.05 µM | CC(=O)N[C@H]1C[C@H](n2c3ccccc3c3c4c(c5c6ccccc6[nH]c5c32)CNC4=O)O[C@@H](C)[C@@H]1O |
| > 2.5 µM | CNC(=O)C[C@H]1O[C@@](C)(C(=O)OC)n2c3ccccc3c3c4c(c5c6ccccc6n1c5c32)C(=O)NC4 |
| > 2.5 µM | CO[C@@H]1[C@H](NC=O)C[C@H]2O[C@]1(C)n1c3ccccc3c3c4c(c5c6ccccc6n2c5c31)C(=O)NC4 |
| 0.56 µM | CO[C@H]1C(=O)C[C@H]2O[C@]1(C)n1c3ccccc3c3c4c(c5c6ccccc6n2c5c31)C(=O)NC4 |
| 5.75 µM | C[C@@H]1O[C@@H](n2c3ccccc3c3c4c(c5c6ccccc6[nH]c5c32)CNC4=O)C[C@@H](N)[C@H]1OC(O)C1CO1 (some centres not stated) |
| 1.3 µM | CO[C@@H]1[C@H](O)C[C@H]2O[C@]1(C)n1c3ccccc3c3c4c(c5c6ccccc6n2c5c31)C(=O)NC4 |
| > 2.5 µM | C[C@@H]1O[C@@H]2C[C@](O)([C@H]1O)n1c3ccccc3c3c4c(c5c6cc(O)ccc6n2c5c31)C(=O)NC4 |

| SMILES | IC50 |
| --- | --- |
| CO[C@@H]1[C@@H](O)[C@@H](O)[C@H]2O[C@]1(C)n1c3ccccc3c3c4c(c5c6ccccc6n2c5c31)C(=O)NC4=O | 1.42 µM |
| C[C@@H]1O[C@@H](n2c3ccccc3c3c4c(c5c6ccccc6[nH]c5c32)C(=O)NC4=O)C[C@@H](N)[C@H]1O | 1.18 µM |
| C[C@]12O[C@H](C[C@]1(O)C(=O)O)n1c3ccccc3c3c4c(c5c6ccccc6n2c5c31)CNC4=O | 5.59 µM |
| CO[C@H]1NC(=O)c2c1c1c3ccccc3n3c1c1c2c2ccccc2n1[C@@H]1O[C@@]3(C)[C@H](OC)[C@@H](O)[C@H]1O | 0.89 µM |
| CO[C@@H]1[C@@H](O)[C@@H](O)[C@H]2O[C@]1(C)n1c3ccccc3c3c4c(c5c6ccccc6n2c5c31)C(=O)N[C@H]4OC | > 2.5 µM |
| CO[C@@H]1[C@@H](O)[C@@H](O)[C@H]2O[C@]1(C)n1c3ccccc3c3c4c(c5c6ccccc6n2c5c31)C(=O)N[C@H]4O | 2.25 µM |
| COC1=C(C)O[C@@H]2C[C@@]1(OC)n1c3ccccc3c3c4c(c5c6ccccc6n2c5c31)C(=O)NC4 | 0.37 µM |
| O=C1NCc2c1c1c3ccccc3[nH]c1c1[nH]c3ccccc3c21 [STAUROSPORINONE] | > 2.5 µM |
| C[C@@H]1O[C@@H](n2c3ccccc3c3c4c(c5c6ccccc6[nH]c5c32)CNC4=O)C[C@@H](N)[C@H]1O | 0.26 µM |
| CN[C@@H]1C[C@H]2O[C@@](C)([C@@H]1OC)n1c3ccccc3c3c4c(c5c6ccccc6n2c5c31)C(=O)NC4=O (stereo in doubt; 14) | 0.017 µM |
| C[C@@H]1O[C@@H]2C[C@](O)([C@H]1O)n1c3ccccc3c3c4c(c5c6ccccc6n2c5c31)C(=O)NC4 | 1.91 µM |
| CN[C@]1(C(=O)OC)C[C@H]2O[C@]1(C)n1c3ccccc3c3c4c(c5c6ccccc6n2c5c31)C(=O)NC4 | > 2.5 µM |
| CO[C@@H]1[C@H](NC(=O)C(=O)c2c[nH]c3ccccc23)C[C@H]2O[C@]1(C)n1c3ccccc3c3c4c(c5c6ccccc6n2c5c31)C(=O)NC4 | 1.79 µM |
| COC(=O)[C@@]1(OC)C[C@H]2O[C@]1(C)n1c3ccccc3c3c4c(c5c6ccccc6n2c5c31)C(=O)NC4 | 0.52 µM |
| COC(=O)[C@H]1C[C@H]2O[C@]1(C)n1c3ccccc3c3c4c(c5c6ccccc6n2c5c31)C(=O)NC4 | 1.68 µM |
| CO[C@@H]1[C@H](O)[C@H](O)[C@H](C)O[C@H]1n1c2ccccc2c2c3c(c4c5ccccc5[nH]c4c21)CNC3=O | 9.43 µM |
| CC(=O)N[C@@H]1C[C@H](n2c3ccc(O)cc3c3c4c(c5c6ccccc6[nH]c5c32)CNC4=O)O[C@@H](C)[C@@H]1O | 0.28 µM |
| C[C@H]1O[C@@H]2C[C@](O)([C@@H]1O)n1c3ccccc3c3c4c(c5c6ccccc6n2c5c31)C(=O)NC4 | > 2.5 µM |
| CO[C@@H]1[C@@H](O)[C@@H](O)[C@H]2O[C@]1(C)n1c3ccccc3c3c4c(c5c6ccccc6n2c5c31)C(=O)N[C@@H]4O | > 2.5 µM |

Reference: ChEMBL document CHEMBL4665887, “Identification, Structure-Activity Relationships of Marine-Derived Indolocarbazoles, and a Dual PKCθ/δ Inhibitor with Potent Antipancreatic Cancer Efficacy” (J Med Chem, 2020)
